Experimental data reported in ChEMBL document CHEMBL1938264, “Novel 3,4-isoxazolediamides as potent inhibitors of chaperone heat shock protein 90” (J Med Chem, 2011).
The source made the active and inactive calls. The calls are words filed in the database; no cut-off is given here.

Experiments:
[1] = molecular target: T1, Heat shock protein HSP 90-beta (Homo sapiens, UniProt P08238); assay: Inhibition of Hsp90 in human A431 cells assessed as reduction in CDK4 protein expression after 24 hrs by Western blot analysis; type: cell-based; settings: A-431
NCI-H460 = assay: Cytotoxicity against human NCI-H460 after 72 hrs by sulforhodamine B assay; type: functional, cell-based; settings: NCI-H460, 72 h
[2] = molecular target: T1, Heat shock protein HSP 90-beta; assay: Inhibition of Hsp90 in human A431 cells assessed as reduction in EGFR protein expression after 24 hrs by Western blot analysis; type: cell-based; settings: A-431
[3] = molecular target: T1, Heat shock protein HSP 90-beta; assay: Binding affinity to Hsp90 after 4 hrs by fluorescence polarization assay
[4] = molecular target: T1, Heat shock protein HSP 90-beta; assay: Inhibition of Hsp90 in human A431 cells assessed as reduction in Akt protein expression after 24 hrs by Western blot analysis; type: cell-based; settings: A-431
[5] = molecular target: T1, Heat shock protein HSP 90-beta; assay: Inhibition of Hsp90 in human A431 cells assessed as increase in Hsp70 protein expression at 0.01 to 0.814 uM after 24 hrs by Western blot analysis; type: cell-based; settings: A-431
A-431 = assay: Antitumor activity against human A431 cells xenografted in CD1 Harlan mouse assessed as tumor volume inhibition at 60 mg/kg, ip qd administered for 5 days; type: functional; settings: A-431, ip, 120 h, route intraperitoneal
[6] = Toxicity in human A431 cells xenografted ip dosed CD1 Harlan mouse; type: organism-based, A-431; settings: in vivo
Mus musculus [7] = assay: Toxicity in human A431 cells xenografted CD1 Harlan mouse assessed as body weight loss at 60 mg/kg, ip qd administered for 5 days; type: organism-based, A-431; parameters: dose 60 mg/kg, route intraperitoneal; settings: in vivo, 120 h
Mus musculus [8] = assay: Degradation of EGFR in human A431 cells xenografted in CD1 Harlan mouse at 60 mg/kg, ip qd administered for 5 days measured 2 hrs post-last dose by Western blot analysis; type: functional, organism-based; parameters: dose 60 mg/kg; settings: A-431
Mus musculus [9] = assay: Increase of Hsp70 expression in human A431 cells xenografted in CD1 Harlan mouse at 60 mg/kg, ip qd administered for 5 days measured 2 hrs post-last dose by Western blot analysis; type: functional, organism-based; parameters: dose 60 mg/kg; settings: A-431
Mus musculus [10] = assay: Degradation of Akt in human A431 cells xenografted in CD1 Harlan mouse at 60 mg/kg, ip qd administered for 5 days measured 2 hrs post-last dose by Western blot analysis; type: functional, organism-based; parameters: dose 60 mg/kg; settings: A-431
Mus musculus [11] = assay: Degradation of CDK4 in human A431 cells xenografted in CD1 Harlan mouse at 60 mg/kg, ip qd administered for 5 days measured 2 hrs post-last dose by Western blot analysis; type: functional, organism-based; parameters: dose 60 mg/kg; settings: A-431
[12] = molecular target: T1, Heat shock protein HSP 90-beta; assay: Inhibition of Hsp90 in human A431 cells assessed as increase in Hsp70 protein expression at 0.0031 to 0.8 uM after 24 hrs by Western blot analysis; type: cell-based; settings: A-431
[13] = molecular target: T1, Heat shock protein HSP 90-beta; assay: Inhibition of Hsp90 in human A431 cells assessed as increase in Hsp70 protein expression at 0.11 to 0.8 uM after 24 hrs by Western blot analysis; type: cell-based; settings: A-431
[14] = molecular target: T1, Heat shock protein HSP 90-beta; assay: Inhibition of Hsp90 in human A431 cells assessed as increase in Hsp70 protein expression at 0.00493 to 1.2 uM after 24 hrs by Western blot analysis; type: cell-based; settings: A-431
[15] = molecular target: T1, Heat shock protein HSP 90-beta; assay: Inhibition of Hsp90 in human A431 cells assessed as increase in Hsp70 protein expression at 0.011 to 0.9 uM after 24 hrs by Western blot analysis; type: cell-based; settings: A-431
[16] = molecular target: T1, Heat shock protein HSP 90-beta; assay: Inhibition of Hsp90 in human A431 cells assessed as increase in Hsp70 protein expression at 0.075 to 1.2 uM after 24 hrs by Western blot analysis; type: cell-based; settings: A-431

T1 sequence (P08238 whole entry): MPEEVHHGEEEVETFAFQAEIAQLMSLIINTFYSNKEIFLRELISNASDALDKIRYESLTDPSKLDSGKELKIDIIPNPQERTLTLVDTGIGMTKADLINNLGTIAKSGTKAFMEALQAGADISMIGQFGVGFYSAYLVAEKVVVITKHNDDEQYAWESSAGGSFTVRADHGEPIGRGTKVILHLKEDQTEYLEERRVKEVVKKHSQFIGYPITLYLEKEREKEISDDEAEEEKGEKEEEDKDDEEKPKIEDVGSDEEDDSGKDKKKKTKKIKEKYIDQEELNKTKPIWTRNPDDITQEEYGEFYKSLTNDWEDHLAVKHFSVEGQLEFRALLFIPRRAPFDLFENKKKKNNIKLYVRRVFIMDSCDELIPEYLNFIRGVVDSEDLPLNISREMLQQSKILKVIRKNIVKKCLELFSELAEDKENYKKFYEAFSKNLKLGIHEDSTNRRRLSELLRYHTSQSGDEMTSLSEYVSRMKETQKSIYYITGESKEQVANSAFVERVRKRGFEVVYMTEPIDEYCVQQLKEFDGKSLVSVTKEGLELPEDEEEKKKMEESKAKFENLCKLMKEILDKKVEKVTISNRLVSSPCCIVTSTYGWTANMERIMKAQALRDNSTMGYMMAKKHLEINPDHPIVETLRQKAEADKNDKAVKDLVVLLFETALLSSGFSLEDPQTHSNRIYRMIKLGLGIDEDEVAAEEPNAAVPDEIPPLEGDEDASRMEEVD

Row | SMILES | IC50 (NCI-H460) [nM] | IC50 [3] [nM] | also measured
1 | CCNC(=O)c1noc(-c2cc(C(C)C)c(O)cc2O)c1NC(=O)c1cc(CC)on1 | 22 | 20 | inhibition [1]: Dose-dependent effect; inhibition [2]: Dose-dependent effect; inhibition [4]: Dose-dependent effect; inhibition [5]: Active
2 | CCNC(=O)c1noc(-c2cc(C(C)C)c(O)cc2O)c1NC(=O)[C@H]1CC[C@H](N)CC1 | > 1000 | 28 | –
3 | CCNC(=O)c1noc(-c2cc(C(C)C)c(O)cc2O)c1NC(=O)c1ccc(N2CCNCC2)cc1 | > 1000 | 32 | –
4 | CCNC(=O)c1noc(-c2cc(C(C)C)c(O)cc2O)c1NC(=O)c1ccc(C)o1 | 16 | < 5 | –
5 | CCNC(=O)c1noc(-c2cc(C(C)C)c(O)cc2O)c1NC(=O)c1ccco1 | 22 | < 5 | –
6 | CCNC(=O)c1noc(-c2cc(C(C)C)c(O)cc2O)c1-c1ccc(CN2CCOCC2)cc1 [LUMINESPIB] | 2.4 | – | inhibition in vivo at 60 mg/kg (A-431): 48%; MTD [6]: 60 mg/kg; Activity (Mus musculus [7]): 8%
7 | CCNC(=O)c1noc(-c2cc(C(C)C)c(O)cc2O)c1NC(=O)c1cc2ccccc2n1C | 360 | 62 | –
8 | CCNC(=O)c1noc(-c2cc(C(C)C)c(O)cc2O)c1NC(=O)[C@H]1CC[C@H](CN)CC1 | > 1000 | 40 | –
9 | COc1ccc(C(=O)Nc2c(C(=O)N3CC(F)(F)C3)noc2-c2cc(Cl)c(O)cc2O)cc1 | > 1000 | > 100000 | –
10 | CCNC(=O)c1noc(-c2cc(C(C)C)c(O)cc2O)c1NC(=O)c1ccc2cc[nH]c2c1 | 170 | 33 | –
11 | CCNC(=O)c1noc(-c2cc(C(C)C)c(O)cc2O)c1NC(=O)[C@H]1CC[C@H](OC(=O)CN)CC1 | > 1000 | < 5 | –
12 | CCNC(=O)c1noc(-c2cc(C(C)C)c(O)cc2O)c1NC(=O)c1cc(CN2CCOCC2)on1 | 200 | 40 | inhibition in vivo at 60 mg/kg (A-431): 48%; MTD [6]: 60 mg/kg; Activity (Mus musculus [7]): 7%; Activity (Mus musculus [8]): Active; Activity (Mus musculus [9]): Active; Activity (Mus musculus [10]): Active; Activity (Mus musculus [11]): Active
13 | CCNC(=O)c1noc(-c2cc(C(C)C)c(O)cc2O)c1NC(=O)C(C)(C)C | 24 | 41 | inhibition [1]: Dose-dependent effect; inhibition [12]: Active; inhibition [2]: Dose-dependent effect; inhibition [4]: Dose-dependent effect
14 | COc1ccc(C(=O)Nc2c(C(=O)NCC(F)(F)F)noc2-c2cc(Cl)c(O)cc2O)cc1 | > 1000 | 160 | –
15 | CCNC(=O)c1noc(-c2cc(C(C)C)c(O)cc2O)c1NC(=O)c1ccc(OC)cc1 | 17 | 26 | –
16 | CCNC(=O)c1noc(-c2cc(Cl)c(O)cc2O)c1NC(C)=O | > 1000 | 37 | –
17 | CCNC(=O)c1noc(-c2cc(Cl)c(O)cc2O)c1NC(=O)CCN1CCOCC1 | 130 | 168 | –
18 | CCNC(=O)c1noc(-c2cc(C(C)C)c(O)cc2O)c1NC(=O)c1sccc1C | 17 | 84 | inhibition [1]: Dose-dependent effect; inhibition [2]: Dose-dependent effect; inhibition [4]: Dose-dependent effect; inhibition [13]: Active
19 | CCNC(=O)c1noc(-c2cc(C(C)C)c(O)cc2O)c1NC(=O)C1CCNCC1 | > 1000 | < 5 | –
20 | CCNC(=O)c1noc(-c2cc(Cl)c(O)cc2O)c1NC(=O)c1ccc(OC)c(OC)c1 | > 1000 | 163 | –
21 | CCNC(=O)c1noc(-c2cc(C(C)C)c(O)cc2O)c1NC(=O)[C@H]1CC[C@H](O)CC1 | > 1000 | < 5 | –
22 | CCNC(=O)c1noc(-c2cc(C(C)C)c(O)cc2O)c1NC(=O)[C@@H]1CC[C@H](CN2CCOCC2)C1 (relative stereo) | 170 | 12 | –
23 | CCNC(=O)c1noc(-c2cc(Cl)c(O)cc2O)c1NC(=O)c1cc(OC)c(OC)c(OC)c1 | > 1000 | 130 | –
24 | CCNC(=O)c1noc(-c2cc(C(C)C)c(O)cc2O)c1NC(=O)c1ccc(N2CCN(C)CC2)cc1 | > 1000 | 24 | –

Row | SMILES | IC50 (NCI-H460) [nM] | IC50 [3] [nM] | also measured
25 | CCNC(=O)c1noc(-c2cc(C(C)C)c(O)cc2O)c1NC(=O)c1ccc2ccsc2c1 | 180 | 20 | –
26 | CCNC(=O)c1noc(-c2cc(C(C)C)c(O)cc2O)c1NC(C)=O | 81 | 55 | –
27 | CCNC(=O)c1noc(-c2cc(Cl)c(O)cc2O)c1NCc1ccc(OC)cc1 | > 1000 | 430 | –
28 | CCNC(=O)c1noc(-c2cc(C(C)C)c(O)cc2O)c1NC(=O)[C@H]1CC[C@H](CN2CCOCC2)CC1 | 130 | 8.8 | –
29 | CCNC(=O)c1noc(-c2cc(C(C)C)c(O)cc2O)c1NC(=O)c1cc(-c2ccccc2)on1 | > 1000 | 250 | –
30 | CCNC(=O)c1noc(-c2cc(C(C)C)c(O)cc2O)c1NC(=O)[C@H]1CC[C@H](C(N)=O)CC1 | > 1000 | < 5 | –
31 | CCNC(=O)c1noc(-c2cc(C(C)C)c(O)cc2O)c1NC(=O)c1ccc(N(C)C)cc1 | 240 | 34 | –
32 | C=CC(=O)Nc1c(C(=O)NCC)noc1-c1cc(Cl)c(O)cc1O | > 1000 | 167 | –
33 | CCNC(=O)c1noc(-c2cc(C(C)C)c(O)cc2O)c1NC(=O)[C@H]1CC[C@@H](C(N)=O)CC1 | 990 | < 5 | –
34 | CCNC(=O)c1noc(-c2cc(C(C)C)c(O)cc2O)c1NC(=O)C1CCCCC1 | 16 | 190 | inhibition [1]: Dose-dependent effect; inhibition [14]: Active; inhibition [2]: Dose-dependent effect; inhibition [4]: Dose-dependent effect
35 | CCNC(=O)c1noc(-c2cc(C(C)C)c(O)cc2O)c1NC(=O)c1sc(C)nc1C | 560 | 10 | –
36 | CCNC(=O)c1noc(-c2cc(C(C)C)c(O)cc2O)c1NC(=O)c1ccc(-n2cccc2)cc1 | > 1000 | 32 | –
37 | CCNC(=O)c1noc(-c2cc(C(C)C)c(O)cc2O)c1NC(=O)c1cccc2cccnc12 | 490 | 36 | –
38 | CCNC(=O)c1noc(-c2cc(C(C)C)c(O)cc2O)c1NC(=O)[C@@H]1CC[C@H](C(=O)OC)C1 | 22 | < 5 | –
39 | CCNC(=O)c1noc(-c2cc(C(C)C)c(O)cc2O)c1NC(=O)[C@H]1CC[C@@H](CO)CC1 | 870 | 15 | –
40 | CCNC(=O)c1noc(-c2cc(C(C)C)c(O)cc2O)c1NC(=O)[C@@H]1CC[C@H](C(=O)O)C1 | > 1000 | 39 | –
41 | CCNC(=O)c1noc(-c2cc(C(C)C)c(O)cc2O)c1NC(=O)c1ccc2ncoc2c1 | 110 | 15 | –
42 | CCNC(=O)c1noc(-c2cc(Cl)c(O)cc2O)c1NC1CCN(C)CC1 | > 1000 | 1600 | –
43 | CCNC(=O)c1noc(-c2cc(Cl)c(O)cc2O)c1NC(=O)c1ccc(Br)cc1 | > 1000 | 153 | –
44 | CCNC(=O)c1noc(-c2cc(C(C)C)c(O)cc2O)c1NC(=O)c1oc2ccccc2c1C | > 1000 | 260 | –
45 | CCNC(=O)c1noc(-c2cc(C(C)C)c(O)cc2O)c1NC(=O)c1ccc(N2CCCC2)cc1 | 810 | 22 | –
46 | CCNC(=O)c1noc(-c2cc(C(C)C)c(O)cc2O)c1NC(=O)[C@H]1CC[C@@H](OC)CC1 | 13 | 24 | inhibition [1]: Dose-dependent effect; inhibition [2]: Dose-dependent effect; inhibition [4]: Dose-dependent effect; inhibition [15]: Active
47 | CCNC(=O)c1noc(-c2cc(C(C)C)c(O)cc2O)c1NC(=O)c1ccc(CN2CCOCC2)cc1 | 95 | 71 | inhibition [1]: Dose-dependent effect; inhibition in vivo at 60 mg/kg (A-431): 33%; MTD [6]: 60 mg/kg; Activity (Mus musculus [7]): 2%; inhibition [2]: Dose-dependent effect; inhibition [4]: Dose-dependent effect; inhibition [16]: Active
48 | CCNC(=O)c1noc(-c2cc(C(C)C)c(O)cc2O)c1NC(=O)[C@H]1CC[C@H](CNS(=O)(=O)c2ccccc2)CC1 | > 1000 | < 5 | –
